Experimental data as given in patent US8461181B2, “Fused heterocyclic compound and use thereof” (Sumitomo Chemical Company, Ltd., priority 2009, dated 2013).

These compounds were tested on Aphis gossypii (assay: Test Example 3: root immersion of cucumber seedling, Aphis gossypii). Conditions: 168 h, cucumber root part immersed in 5 ml, inoculated one day after treatment, checked seven days after.
Assay type: in vivo
Method: The formulations of the present active compounds (18), (19), (21), (22), (24), (25), (28), (31) to (34), (46), (47), (52), (53), (101) to (104), (106) to (108), (112) to (114), (117), (118), (122), (123), (126), (128), (129), (133), (134), (138), (144), (153) to (155) and (157) obtained by Formulation Example 5 were diluted with water so that the active ingredient concentration was 500 ppm, to prepare diluted solutions for test. A root part of a cucumber seedling (first true leaf spreading stage) from which soil had been washed off was immersed in 5 ml of this diluted solution, and one day after treatment, the cucumber leaf surface was inoculated with 30 Aphis gossypii (whole stage). Further seven days after, the number of insect of living Aphis gossypii […] on the leaves of this cucumber was checked, and the control value was calculated according to the following formula. Control value (%)={1-(Cb×Tai)/(Cai×Tb)}×100 Letters in the formula represent the following meanings. Cb: the number of insect before treatment on non-treated district Cai: the number of insect in observation on non-treated district Tb: the number of insect before treatment on treated district Tai: the number of insect in observation on treated district
`Cn1c(-c2ccncc2S(C)(=O)=O)nc2cc(C(F)(F)F)ccc21` [present active compound 19, 2-(3-methanesulfonylpyridin-4-yl)-1-methyl-5-trifluoromethyl-1H-benzimidazole] was tested, and the pest or weed control at 500 ppm was ≥ 90%.
With `CC[S+]([O-])c1cnccc1-c1nc2cc(C(F)(F)F)ccc2n1C` (stereo not drawn) [present active compound 21, 2-(3-ethanesulfinylpyridin-4-yl)-1-methyl-5-trifluoromethyl-1H-benzimidazole] the pest or weed control at 500 ppm was ≥ 90%.
`Cn1c(-c2cc[n+]([O-])cc2)nc2cc(C(F)(F)F)ccc21` [present active compound 24, 1-methyl-2-(1-oxypyridin-4-yl)-5-trifluoromethyl-1H-benzimidazole] was tested, and the pest or weed control at 500 ppm was ≥ 90%.
For `Fc1cnccc1-c1nc2cc(C(F)(F)F)ccc2n1C1CC1` [present active compound 28, 1-cyclopropyl-2-(3-fluoropyridin-4-yl)-5-trifluoromethyl-1H-benzimidazole], the pest or weed control at 500 ppm was ≥ 90%.
With `CCOCCOc1cnccc1-c1nc2cc(C(F)(F)F)cnc2n1C` [present active compound 47, 2-[3-(2-ethoxyethoxy)-pyridin-4-yl]-3-methyl-6-trifluoromethyl-3H-imidazo[4,5-b]pyridine] the pest or weed control at 500 ppm was ≥ 90%.
With `CC[S+]([O-])c1cnccc1-c1nc2cc(C(F)(F)F)cnc2n1C` (stereo not drawn) [present active compound 52, 2-(3-ethanesulfinylpyridin-4-yl)-3-methyl-6-trifluoromethyl-3H-imidazo[4,5-b]pyridine] the pest or weed control at 500 ppm was ≥ 90%.
`Cn1c(-c2ccncc2SC(F)(F)F)nc2cc(C(F)(F)F)ccc21` [present active compound 122] was tested, and the pest or weed control at 500 ppm was ≥ 90%.
`Cn1c(-c2ccncc2SCC(F)F)nc2cc(C(F)(F)F)cnc21` [present active compound 123] was tested, and the pest or weed control at 500 ppm was ≥ 90%.
With `Cn1c(-c2ccncc2SC(F)(F)C(F)F)nc2cc(C(F)(F)F)cnc21` [present active compound 126] the pest or weed control at 500 ppm was ≥ 90%.
`Cn1c(-c2ccncc2SCCF)nc2cc(C(F)(F)F)cnc21` [present active compound 128] was tested, and the pest or weed control at 500 ppm was ≥ 90%.
For `Cn1c(-c2ccncc2SCCF)nc2cc(C(F)(F)F)ccc21` [present active compound 129], the pest or weed control at 500 ppm was ≥ 90%.
`C=CCSc1cnccc1-c1nc2cc(C(F)(F)F)cnc2n1C` [present active compound 133] was tested, and the pest or weed control at 500 ppm was ≥ 90%.
In the case of `C=CCSc1cnccc1-c1nc2cc(C(F)(F)F)ccc2n1C` [present active compound 134], the pest or weed control at 500 ppm is reported as ≥ 90%.
`CCNC(=O)c1cnccc1-c1nc2cc(C(F)(F)F)cnc2n1C` [present active compound 138] was tested, and the pest or weed control at 500 ppm was ≥ 90%.
In the case of `CCOC(=O)c1cnccc1-c1nc2cc(C(F)(F)F)cnc2n1C` [present active compound 144], the pest or weed control at 500 ppm is reported as ≥ 90%.
For `COC(=O)CSc1cnccc1-c1nc2cc(C(F)(F)F)cnc2n1C` [present active compound 157], the pest or weed control at 500 ppm was ≥ 90%.

The compounds below were run on Nilaparvata lugens (assay: Test Example 8: spray on rice seedling, 20 first instar larvae of Nilaparvata lugens). Conditions: 144 h, 10 ml sprayed on rice seedling, 20 first instar larvae released, 6 days at 25° C.
Assay type: in vivo
Method: The formulations of the present active compounds (6), (7), (18), (21), (24), (25), (28) to (30), (32), (46), (52), (101) to (103), (105) to (107), (111), (112), (115), (119) to (124), (126) to (130), (133) to (135), (139), (142), (144) to (146), (149) to (151), (153), (154), (216) and (217) obtained by Formulation Example 5 were diluted with water so that the active ingredient concentration was 500 ppm, to prepare spray solutions for test. Separately, on a rice seedling (2 weeks after sowing, second leaf spreading stage) planted on a plastic cup, the drug solutions for test prepared as described above were sprayed each in an amount of 10 ml. After drying of the drug solution sprayed on rice, 20 first instar larvae of Nilaparvata lugens were released, and kept in a greenhouse of 25° C. for 6 days. Thereafter, the number of Nilaparvata lugens […] on rice was checked, and the control value was calculated according to the following formula. Control value (%)={1-(Cb×Tai)/(Cai×Tb)}×100 Letters in the formula represent the following meanings. Cb: the number of insect before treatment on non-treated district Cai: the number of insect in observation on non-treated district Tb: the number of insect before treatment on treated district Tai: the number of insect in observation on treated district
With `CC[S+]([O-])c1cnccc1-c1nc2cc(C(F)(F)F)ccc2n1C` (stereo not drawn) [present active compound 21, 2-(3-ethanesulfinylpyridin-4-yl)-1-methyl-5-trifluoromethyl-1H-benzimidazole] the pest or weed control at 500 ppm was ≥ 90%.
In the case of `Cn1c(-c2cc[n+]([O-])cc2)nc2cc(C(F)(F)F)ccc21` [present active compound 24, 1-methyl-2-(1-oxypyridin-4-yl)-5-trifluoromethyl-1H-benzimidazole], the pest or weed control at 500 ppm is reported as ≥ 90%.
`CCSc1cnccc1-c1nc2cc(C(F)(F)F)ccc2n1C1CC1` [present active compound 32, 1-cyclopropyl-2-(3-ethylthiopyridin-4-yl)-5-trifluoromethyl-1H-benzimidazole] was tested, and the pest or weed control at 500 ppm was ≥ 90%.
In the case of `CC[S+]([O-])c1cnccc1-c1nc2cc(C(F)(F)F)cnc2n1C` (stereo not drawn) [present active compound 52, 2-(3-ethanesulfinylpyridin-4-yl)-3-methyl-6-trifluoromethyl-3H-imidazo[4,5-b]pyridine], the pest or weed control at 500 ppm is reported as ≥ 90%.
In the case of `Cn1c(-c2ccncc2OCC(C)(C)C)nc2cc(C(F)(F)F)cnc21` [present active compound 111], the pest or weed control at 500 ppm is reported as ≥ 90%.
With `CC(C)COc1cnccc1-c1nc2cc(C(F)(F)F)cnc2n1C` [present active compound 112] the pest or weed control at 500 ppm was ≥ 90%.
In the case of `Cn1c(-c2ccncc2S)nc2cc(C(F)(F)F)cnc21` [present active compound 115], the pest or weed control at 500 ppm is reported as ≥ 90%.
For `Cn1c(-c2ccncc2C(=O)NCC#N)nc2cc(C(F)(F)F)cnc21` [present active compound 142], the pest or weed control at 500 ppm was ≥ 90%.
For `Cn1c(-c2ccncc2SCC#N)nc2cc(C(F)(F)F)cnc21` [present active compound 153], the pest or weed control at 500 ppm was ≥ 90%.
With `Cn1c(-c2ccncc2SCC#N)nc2cc(C(F)(F)F)ccc21` [present active compound 154] the pest or weed control at 500 ppm was ≥ 90%.

The compounds below were run on Nilaparvata lugens (assay: Test Example 9: foot drench of rice seedling, twenty first instar larvae of Nilaparvata lugens). Conditions: soil, 144 h, 5 ml drench at foot of rice seedling, kept 7 days, twenty first instar larvae released, further 6 days.
Assay type: in vivo
Method: The formulations of the present active compounds (6), (7), (18), (22), (25), (30), (33), (46), (47), (53), (101) to (103), (106), (121) to (124), (126) to (128), (135), (139), (216) and (217) obtained by Formulation Example 5 were diluted with water so that the active ingredient concentration was 500 ppm, to prepare diluted solutions for test. Separately, a rice seedling (2 weeks after sowing, second leaf spreading stage) planted on a plastic cup was drenched at its foot with each 5 ml of the diluted solutions, and kept in a greenhouse of 25° C. for 7 days. Twenty first instar larvae of Nilaparvata lugens were released, and further kept in the greenhouse for 6 days, then, the number of insect of living Nilaparvata lugens […] on rice was checked, and the control value was calculated according to the following formula. Control value (%)={1-(Cb×Tai)/(Cai×Tb)}×100 Letters in the formula represent the following meanings. Cb: the number of insect before treatment on non-treated district Cai: the number of insect in observation on non-treated district Tb: the number of insect before treatment on treated district Tai: the number of insect in observation on treated district
`C[S+]([O-])c1cnccc1-c1nc2cc(C(F)(F)F)ccc2n1C1CC1` (stereo not drawn) [present active compound 30, 1-cyclopropyl-2-(3-methanesulfinylpyridin-4-yl)-5-trifluoromethyl-1H-benzimidazole] was tested, and the pest or weed control at 500 ppm was ≥ 90%.
In the case of `CC[S+]([O-])c1cnccc1-c1nc2cc(C(F)(F)F)ccc2n1C1CC1` (stereo not drawn) [present active compound 33, 1-cyclopropyl-2-(3-ethanesulfinylpyridin-4-yl)-5-trifluoromethyl-1H-benzimidazole], the pest or weed control at 500 ppm is reported as ≥ 90%.
For `CCOCCOc1cnccc1-c1nc2cc(C(F)(F)F)cnc2n1C` [present active compound 47, 2-[3-(2-ethoxyethoxy)-pyridin-4-yl]-3-methyl-6-trifluoromethyl-3H-imidazo[4,5-b]pyridine], the pest or weed control at 500 ppm was ≥ 90%.
For `C#CCSc1cnccc1-c1nc2cc(C(F)(F)F)cnc2n1C` [present active compound 135], the pest or weed control at 500 ppm was ≥ 90%.

The compounds below were run on Aphis gossypii (assay: Test Example 4: foot drench of cucumber seedling in plastic cup, inoculation after 7 days, Aphis gossypii). Conditions: soil, 144 h, 5 ml drench at foot of cucumber seedling in plastic cup, kept 7 days at 25° C., inoculated, further 6 days.
Assay type: in vivo
Method: The formulations of the present active compounds (3) to (7), (17), (19), (20), (22), (29) to (31), (35) to (37), (39), (41) to (45), (47) to (56), (101), (106), (121) to (123), (128), (131), (137), (139), (143), (145), (147), (211) to (213), (216) and (217) obtained by Formulation Example 5 were diluted with water so that the active ingredient concentration was 500 ppm, to prepare diluted solutions for test. Separately, a cucumber seedling (second true leaf spreading stage) planted on a plastic cup was drenched at its foot with each 5 ml of the diluted solutions, and kept in a greenhouse of 25° C. for 7 days. The cucumber leaf surface was inoculated with 30 Aphis gossypii (whole stage), and further kept in the greenhouse for 6 days, then, the number of insect of living Aphis gossypii […] on the leaves of this cucumber was checked, and the control value was calculated according to the following formula. Control value (%)={1-(Cb×Tai)/(Cai×Tb)}×100 Letters in the formula represent the following meanings. Cb: the number of insect before treatment on non-treated district Cai: the number of insect in observation on non-treated district Tb: the number of insect before treatment on treated district Tai: the number of insect in observation on treated district
In the case of `Cn1c(-c2ccncc2S(C)(=O)=O)nc2cc(C(F)(F)F)ccc21` [present active compound 19, 2-(3-methanesulfonylpyridin-4-yl)-1-methyl-5-trifluoromethyl-1H-benzimidazole], the pest or weed control at 500 ppm is reported as ≥ 90%.
For `CCOc1cnccc1-c1nc2cc(C(F)(F)F)cnc2n1C` [present active compound 39, 2-(3-ethoxypyridin-4-yl)-3-methyl-6-trifluoromethyl-3H-imidazo[4,5-b]pyridine], the pest or weed control at 500 ppm was ≥ 90%.
`CC(C)Sc1cnccc1-c1nc2cc(C(F)(F)F)cnc2n1C` [present active compound 101] was tested, and the pest or weed control at 500 ppm was ≥ 90%.
For `Cn1c(-c2ccncc2SCCF)nc2cc(C(F)(F)F)cnc21` [present active compound 128], the pest or weed control at 500 ppm was ≥ 90%.
With `CN(C)S(=O)(=O)c1cnccc1-c1nc2cc(C(F)(F)F)cnc2n1C` [present active compound 131] the pest or weed control at 500 ppm was ≥ 90%.
With `CNC(=O)c1cnccc1-c1nc2cc(C(F)(F)F)cnc2n1C` [present active compound 137] the pest or weed control at 500 ppm was ≥ 90%.
With `COC(=O)c1cnccc1-c1nc2cc(C(F)(F)F)cnc2n1C` [present active compound 143] the pest or weed control at 500 ppm was ≥ 90%.
`Cn1c(-c2ccncc2SCC2CC2)nc2cc(C(F)(F)F)cnc21` [present active compound 145] was tested, and the pest or weed control at 500 ppm was ≥ 90%.
`COCCSc1cnccc1-c1nc2cc(C(F)(F)F)cnc2n1C` [present active compound 147] was tested, and the pest or weed control at 500 ppm was ≥ 90%.
